Laboratory results reported in PMC8508785, “Synthesis and In Silico Docking of New Pyrazolo[4,3-e]pyrido[1,2-a]pyrimidine-based Cytotoxic Agents” (International Journal of Molecular Sciences, 2021).

Columns and labels:
[1] = system: NIH 3T3 non-malignant mouse embryonic fibroblasts; assay: SRB cytotoxicity assay, NIH 3T3; type: cell-based; conditions: NIH3T3, 72 h of treatment, non-malignant NIH 3T3
Procedure: (§1) The synthesized compounds were evaluated for their cytotoxic activity by a photometric […] (SRB) on different human cancer cell lines, malignant melanoma (A375), colon (HT29), breast (MCF-7), human ovarian carcinoma (A2780) and pharynx carcinoma (FaDu); for comparison, non-malignant mouse embryonic fibroblasts (NIH 3T3) and human embryonic kidney cells (HEK293) were included; doxorubicin (DX) was used as a positive control.
(§2) The cell lines were obtained from Department of oncology (MartinLutherUniversity Halle-Wittenberg). Cultures were maintained as monolayers in RPMI 1640 medium with L-glutamine (Capricorn Scientific GmbH, Ebsdorfergrund, Germany) supplemented with 10% heat-inactivated fetal bovine serum (Sigma-Aldrich Chemie GmbH, Steinheim, Germany) and penicillin/streptomycin (1%, Capricorn Scientific GmbH, Ebsdorfergrund, Germany) at 37 °C in a humidified atmosphere with 5% CO2.
(§3) The cytotoxicity of the compounds was evaluated using the sulforhodamine-B (Kiton-Red S, ABCR: Karlsruhe, Germany) microculture colorimetric assay using […] cells in 96-well plates with the seeding of the cells on day 0,by applying appropriate cell densities to prevent confluence of the cells during the period of the experiment. On day 1, the cells were treated with six different concentrations (1, 3, 7, 12, 20 and 30 μM); thereby, the final concentration of DMSO was always <0.5%, generally regarded as non-toxic to the cells. On day 4, the supernatant medium was discarded; the cells were fixed with 10% trichloroacetic acid. After another day at 4 °C, the cells were washed in a strip washer and dyed with the SRB solution (100 μL, 0.4% in 1% acetic acid) for about 20 min to be followed by washing of the plates (four times, 1% acetic acid) and air-drying overnight. Furthermore, Tris base solution (200 μL, 10 mM) was added to each well, and absorbance was measured at λ = 570 nm employing a reader (96 wells, Tecan Spectra, Crailsheim, Germany). The EC50 values were averaged from three independent experiments performed each in triplicate, calculated from semi-logarithmic dose–response curves applying a non-linear four-parameter Hill-slope equation (GraphPad Prism5 vom Graphpad Software Inc., San Diego, USA; the variables top and bottom were set to 100 and 0, respectively).

[2] = system: HEK293 human embryonic kidney cells; assay: SRB cytotoxicity assay, HEK293; type: cell-based; conditions: 72 h of treatment, non-malignant HEK293
Procedure: as §1, §2, §3

[3] = system: HT29 cells (colon); assay: SRB cytotoxicity assay, HT29; type: cell-based; conditions: Homo sapiens, HT-29, 72 h of treatment
Procedure: as §1, §2, §3

[4] = system: FaDu cells (pharynx carcinoma); assay: SRB cytotoxicity assay, FaDu; type: cell-based; conditions: Homo sapiens, 72 h of treatment
Procedure: as §1, §2, §3

[5] = system: human tumor cell lines A375, HT29, MCF7, A2780, FaDu; assay: SRB cytotoxicity assay, panel of human tumor cell lines; type: cell-based; conditions: one statement for several/all five cancer cell lines, read-out: EC50 across the cancer cell lines
Procedure: as §1, §2
as §3, with “After another day at 4 °C, the cells were washed in a strip washer and dyed with the SRB solution (100 μL, 0.4% in 1% acetic acid) for about 20 min to be followed by washing of the plates (four times, 1% acetic acid) and air-drying overnight.” left out

[6] = system: A2780 cells (human ovarian carcinoma); assay: SRB cytotoxicity assay, A2780; type: cell-based; conditions: 72 h of treatment
Procedure: as §1, §2, §3

[7] = system: A375 cells (malignant melanoma); assay: SRB cytotoxicity assay, A375; type: cell-based; conditions: Homo sapiens, A-375, 72 h of treatment
Procedure: as §1, §2, §3

[8] = system: MCF-7 cells (breast); assay: SRB cytotoxicity assay, MCF-7; type: cell-based; conditions: Homo sapiens, MCF7, 72 h of treatment
Procedure: as §1, §2, §3

SMILES | EC50 [1] [µM] | EC50 [2] [µM] | EC50 [3] [µM] | melting point [°C] | EC50 [4] [µM] | EC50 [5] [µM] | EC50 [6] [µM] | EC50 [7] [µM] | EC50 [8] [µM]
Cc1nn(-c2ccccc2)c(N)c1C#N [Compound 3, 5-Amino-3-methyl-1-phenyl-1H-pyrazole-4-carbonitrile] | > 30 | > 30 | > 30 | 132 | > 30 | > 30 | > 30 | > 30 | > 30
CC(=O)/C=C(\C)Nc1c(C#N)c(C)nn1-c1ccccc1 [Compound 5, 3-Methyl-5-{[(1E)-1-methyl-3-oxobut-1-en-1-yl]amino}-1-phenyl-1H-pyrazole-4-carbonitrile] | > 30 | > 30 | > 30 | 109 | > 30 | > 30 | > 30 | > 30 | > 30
CC(=O)C1=C(C)N2C(=C(C#N)C1c1ccc(Cl)cc1)N=C(N)c1c(C)nn(-c3ccccc3)c12 (stereo not shown) [Compound 7a, 8-Acetyl-4-amino-7-(4-chlorophenyl)-3,9-dimethyl-1-phenyl-1,7-dihydropyrazolo[4,3-e] Pyrido[1,2-a]pyrimidine-6-carbonitrile] | 23 ± 1.4 | 15.8 ± 2 | 29.9 ± 1.4 | 167 | > 30 | – | 18 ± 3 | 19.3 ± 3 | 17.2 ± 1.4
CC(=O)C1=C(C)N2C(=C(C#N)C1c1ccc(C)cc1)N=C(N)c1c(C)nn(-c3ccccc3)c12 (stereo not shown) [Compound 7b] | 21.3 ± 0.9 | 12.4 ± 0.9 | 17.5 ± 1.8 | 167 | 22.3 ± 2.7 | – | 14.6 ± 2.2 | 12.9 ± 1.6 | 12.2 ± 1.3
CC(=O)C1=C(C)N2C(=C(C#N)C1c1ccccc1)N=C(N)c1c(C)nn(-c3ccccc3)c12 (stereo not shown) [Compound 7c, 8-Acetyl-4-amino-3,9-dimethyl-1,7-diphenyl-1,7-dihydropyrazolo[4,3-e]Pyrido[1,2-a]pyrimidine-6-carbonitrile] | > 30 | 7.7 ± 1.1 | > 30 | 198 | > 30 | – | 25.4 ± 2.5 | 19.3 ± 3.8 | 19.5 ± 1.1
COc1ccc(C2C(C#N)=C3N=C(N)c4c(C)nn(-c5ccccc5)c4N3C(C)=C2C(C)=O)cc1 (stereo not shown) [Compound 7d, 8-Acetyl-4-Amino-7-(4-methoxyphenyl)-3,9-dimethyl-1-phenyl-1,7-dihydropyrazolo[4,3-e] Pyrido[1,2-a]pyrimidine-6-carbonitrile] | > 30 | 16.7 ± 1.2 | 28.3 ± 3.5 | 160 | > 30 | – | 21.7 ± 3.9 | 21.5 ± 3.6 | 18.4 ± 2.3
CC(=O)C1=C(C)N2C(=C(C#N)C1c1ccc(Br)cc1)N=C(N)c1c(C)nn(-c3ccccc3)c12 (stereo not shown) [Compound 7e, 8-Acetyl-4-amino-7-(4-bromophenyl)-3,9-dimethyl-1-phenyl-1,7-dihydropyrazolo[4,3-e] Pyrido[1,2-a]pyrimidine-6-carbonitrile] | 12.3 ± 0.7 | 6.6 ± 0.6 | 13.3 ± 1.8 | 192 | 13.5 ± 1.5 | 9.1 to 13.5 | 9.1 ± 1.6 | 9.4 ± 1.2 | 9.2 ± 0.7
CC(=O)C1=C(C)N2C(=C(C#N)C1c1ccc(F)cc1)N=C(N)c1c(C)nn(-c3ccccc3)c12 (stereo not shown) [Compound 7f, 8-Acetyl-4-amino-7-(4-fluorophenyl)-3,9-dimethyl-1-phenyl-1,7-sihydropyrazolo[4,3-e] Pyrido[1,2-a]pyrimidine-6-carbonitrile] | 24.1 ± 2.8 | 14.7 ± 1.4 | 24.7 ± 4.4 | 259 | > 30 | – | 19.2 ± 3.9 | 18.1 ± 3.3 | 19.2 ± 1.3
CC(=O)C1=C(C)N2C(=C(C#N)C1c1ccc([N+](=O)[O-])cc1)N=C(N)c1c(C)nn(-c3ccccc3)c12 (stereo not shown) [Compound 7g, 8-Acetyl-4-amino-3,9-dimethyl-7-(4-nitrophenyl)-1-phenyl-1,7-dihydropyrazolo[4,3-e] Pyrido[1,2-a]pyrimidine-6-carbonitrile] | > 30 | 17 ± 1.3 | 25.9 ± 3.4 | 164 | > 30 | – | 14.5 ± 2.2 | 16.2 ± 2 | 15.7 ± 2.2
COc1ccc(C2C(C#N)=C3N=C(N)c4c(C)nn(-c5ccccc5)c4N3C(C)=C2C(C)=O)cc1OC (stereo not shown) [Compound 7h, 8-Acetyl-4-amino-7-(3,4-dimethoxyphenyl)-3,9-dimethyl-1-phenyl-1,7-dihydropyrazolo[4,3-e] Pyrido[1,2-a]pyrimidine-6-carbonitrile] | > 30 | 24 ± 3.4 | > 30 | 260 | > 30 | – | 27.5 ± 8.1 | 22.1 ± 4.9 | 25.1 ± 2.8
CC(=O)C1=C(C)N2C(=C(C#N)C1c1ccc(Cl)c(Cl)c1)N=C(N)c1c(C)nn(-c3ccccc3)c12 (stereo not shown) [Compound 7i, 8-Acetyl-4-amino-7-(3,4-dichlorophenyl)-3,9-dimethyl-1-phenyl-1,7-dihydropyrazolo[4,3-e] Pyrido[1,2-a]pyrimidine-6-carbonitrile] | – | – | – | 235 | – | – | – | – | –
CC(=O)C1=C(C)N2C(=C(C#N)C1c1ccc([N+](=O)[O-])s1)N=C(N)c1c(C)nn(-c3ccccc3)c12 (stereo not shown) [Compound 7j, 8-Acetyl-4-amino-3,9-dimethyl-7-(5-nitro-2-thienyl)-1-phenyl-1,7-dihydropyrazolo[4,3-e] Pyrido[1,2-a]pyrimidine-6-carbonitrile] | – | – | – | 262 | – | – | – | – | –
CC(=O)C1=C(C)N2C(=C(C#N)C1c1ccc3ccccc3c1)N=C(N)c1c(C)nn(-c3ccccc3)c12 (stereo not shown) [Compound 7k, 8-Acetyl-4-amino-3,9-dimethyl-7-(2-naphthyl)-1-phenyl-1,7-dihydropyrazolo[4,3-e] Pyrido[1,2-a]pyrimidine-6-carbonitrile] | – | – | – | 270 | – | – | – | – | –
CC(=O)C1=C(C)N2C(=C(C#N)C1c1cccnc1)N=C(N)c1c(C)nn(-c3ccccc3)c12 (stereo not shown) [Compound 7l, 8-Acetyl-4-amino-3,9-dimethyl-1-phenyl-7-pyridin-3-yl-1,7-dihydropyrazolo[4,3-e] Pyrido[1,2-a]pyrimidine-6-carbonitrile] | – | – | – | 306 | – | – | – | – | –
COc1cccc2c1C(=O)c1c(O)c3c(c(O)c1C2=O)C[C@@](O)(C(=O)CO)C[C@@H]3O[C@H]1C[C@H](N)[C@H](O)[C@H](C)O1 [DX, doxorubicin, reference compound] | 0.4 ± 0.07 | – | 0.9 ± 0.01 | – | – | – | 0.01 ± 0.01 | – | 1.1 ± 0.3
